# In US12708116B2, “Herbicidal compositions comprising 2,4-D” (BASF SE, priority 2023, dated 2026):
# Experiments:
# Experiment in all cases: Post-emergence application in field trials
# AMARE = type: in vivo, Amaranthus retroflexus; conditions: 8 DAT; g ai/ha A-1 25, B-5 1066; growth stage 19; height 10-20 cm; water volume 140 l/ha
# AMATU = type: in vivo, Amaranthus tuberculatos; conditions: 8 DAT; g ai/ha A-1 12.5, B-5 1066; growth stage 19; height 10-20 cm; water volume 140 l/ha
# PORPI = type: in vivo; conditions: 8 DAT; g ai/ha A-1 25, B-5 1066; height 2-8 cm; water volume 140 l/ha
# ECHCG = type: in vivo, Echinochloa crus-galli
# SETVI = type: in vivo, Setaria viridis; conditions: 15 DAT; g ai/ha A-1 12.5, B-5 1066, C-10 840; growth stage 13-19; height 2-18 cm; water volume 140 l/ha
# GLXMA = type: in vivo, Glycine max; conditions: Example 4; 21 DAT; g ai/ha A-1 12.5, B-5 1066; growth stage 13; height 5-8 cm
# AMAPA = system: AMAPA
# DIGSA = system: DIGSA
# CYPES = conditions: 21 DAT, water volume 140 l/ha
# DATST = system: DATST
# ZEAMX = conditions: growth stage 15-16
# SETVE = conditions: growth stage 21-23
# HORVW = conditions: growth stage 23-29, height 20-25 cm
structure (smiles),measurement,setting,value
"C[N+](C)(C)CCO.O=C([O-])COc1ccc(Cl)cc1Cl [B-5, 2,4-D choline]",% Herbicidal activity,AMARE,83%
same,% Herbicidal activity,AMATU,83%
same,% Herbicidal activity,PORPI,50%
same,% Herbicidal activity,"ECHCG; 13 DAT, g ai/ha A-1 12.5, B-5 1066, C-10 840, growth stage 21-26, height 15-30 cm, water volume 187 l/ha",0%
same,% Herbicidal activity,"ECHCG; 13 DAT, g ai/ha A-1 25, B-5 1066, C-10 840, growth stage 21-26, height 15-30 cm, water volume 187 l/ha",0%
same,% Herbicidal activity,"ECHCG; 13 DAT, g ai/ha A-1 50, B-5 1066, C-10 840, growth stage 21-26, height 15-30 cm, water volume 187 l/ha",0%
same,% Herbicidal activity,"ECHCG; Example 4, 21 DAT, g ai/ha A-1 12.5, B-5 1066, growth stage 23-30, height 15-20 cm",0%
same,% Herbicidal activity,"ECHCG; Example 6, 7 DAT, g ai/ha A-1 12.5, B-5 1066, C-11 400, growth stage 23-30, height 15-20 cm",0%
same,% Herbicidal activity,"ECHCG; Example 6, 28 DAT, g ai/ha A-1 12.5, B-5 1066, C-11 400, growth stage 23-30, height 15-20 cm",0%
same,% Herbicidal activity,"ECHCG; Example 8, 7 DAT, g ai/ha A-1 12.5, B-5 1066, C-12 252, growth stage 23-30, height 15-20 cm",0%
same,% Herbicidal activity,"ECHCG; Example 8, 21 DAT, g ai/ha A-1 12.5, B-5 1066, C-12 252, growth stage 23-30, height 15-20 cm",0%
same,% Herbicidal activity,"ECHCG; Example 8, 28 DAT, g ai/ha A-1 12.5, B-5 1066, C-12 252, growth stage 23-30, height 15-20 cm",0%
same,% Herbicidal activity,"ECHCG; Example 10, 21 DAT, g ai/ha A-1 12.5, B-5 1066, C-4 12.5, growth stage 23-30, height 15-20 cm",0%
same,% Herbicidal activity,SETVI,27%
same,% Herbicidal activity,GLXMA,55%
same,% Herbicidal activity,"AMAPA; 13 DAT, g ai/ha A-1 25, B-5 1066, growth stage 16, height 15-25 cm, water volume 187 l/ha",53%
same,% Herbicidal activity,"AMAPA; 14 DAT, g ai/ha A-1 12.5, B-5 1066, C-10 840, growth stage 12-24, height 5-30 cm, water volume 140 l/ha",66%
same,% Herbicidal activity,"AMAPA; 14 DAT, g ai/ha A-1 25, B-5 1066, C-10 840, growth stage 12-24, height 5-30 cm, water volume 140 l/ha",66%
same,% Herbicidal activity,"AMAPA; 19 DAT, g ai/ha A-1 12.5, B-5 1066, growth stage 16, height 15-25 cm, water volume 187 l/ha",55%
same,% Herbicidal activity,"AMAPA; 19 DAT, g ai/ha A-1 25, B-5 1066, growth stage 16, height 15-25 cm, water volume 187 l/ha",55%
same,% Herbicidal activity,"AMAPA; 19 DAT, g ai/ha A-1 50, B-5 1066, growth stage 16, height 15-25 cm, water volume 187 l/ha",55%
same,% Herbicidal activity,"AMAPA; 21 DAT, g ai/ha A-1 12.5, B-5 1066, growth stage 12-28, height 7-20 cm, water volume 140 l/ha",63%
same,% Herbicidal activity,"AMAPA; 21 DAT, g ai/ha A-1 50, B-5 1066, height 5-23 cm, water volume 140 l/ha",78%
same,% Herbicidal activity,"DIGSA; 14 DAT, g ai/ha A-1 12.5, B-5 1066, height 2-8 cm, water volume 140 l/ha",0%
same,% Herbicidal activity,"DIGSA; 14 DAT, g ai/ha A-1 25, B-5 1066, height 2-8 cm, water volume 140 l/ha",0%
same,% Herbicidal activity,"DIGSA; 14 DAT, g ai/ha A-1 50, B-5 1066, height 2-8 cm, water volume 140 l/ha",0%
same,% Herbicidal activity,"DIGSA; 15 DAT, g ai/ha A-1 12.5, B-5 1066, C-10 840, growth stage 13-19, height 2-13 cm, water volume 140 l/ha",27%
same,% Herbicidal activity,"DIGSA; 21 DAT, g ai/ha A-1 12.5, B-5 1066, C-11 655, height 2-8 cm, water volume 140 l/ha",0%
same,% Herbicidal activity,"DIGSA; 21 DAT, g ai/ha A-1 12.5, B-5 1066, height 2-8 cm, water volume 140 l/ha",0%
same,% Herbicidal activity,"DIGSA; 21 DAT, g ai/ha A-1 25, B-5 1066, C-11 655, height 2-8 cm, water volume 140 l/ha",0%
same,% Herbicidal activity,"DIGSA; 21 DAT, g ai/ha A-1 25, B-5 1066, height 2-8 cm, water volume 140 l/ha",0%
same,% Herbicidal activity,"DIGSA; 21 DAT, g ai/ha A-1 50, B-5 1066, C-11 655, height 2-8 cm, water volume 140 l/ha",0%
same,% Herbicidal activity,"DIGSA; 21 DAT, g ai/ha A-1 50, B-5 1066, height 2-8 cm, water volume 140 l/ha",0%
same,% Herbicidal activity,"DIGSA; Example 6, 7 DAT, g ai/ha A-1 12.5, B-5 1066, C-11 400, growth stage 21-22, height 15-20 cm",20%
same,% Herbicidal activity,"DIGSA; Example 6, 21 DAT, g ai/ha A-1 12.5, B-5 1066, C-11 400, growth stage 21-22, height 15-20 cm",20%
same,% Herbicidal activity,"CYPES; g ai/ha A-1 12.5, B-5 1066, C-11 655",0%
same,% Herbicidal activity,"CYPES; g ai/ha A-1 50, B-5 1066, C-11 655",0%
same,% Herbicidal activity,"CYPES; g ai/ha A-1 50, B-5 1066",0%
same,% Herbicidal activity,"DATST; Example 4, 7 DAT, g ai/ha A-1 12.5, B-5 1066",35%
same,% Herbicidal activity,"DATST; Example 6, 21 DAT, g ai/ha A-1 12.5, B-5 1066, C-11 400",40%
same,% Herbicidal activity,"ZEAMX; Example 4, 7 DAT, g ai/ha A-1 18, B-5 1066, height 50-60 cm",7%
same,% Herbicidal activity,"ZEAMX; Example 4, 21 DAT, g ai/ha A-1 12.5, B-5 1066, height 50-60 cm",10%
same,% Herbicidal activity,"ZEAMX; Example 6, 7 DAT, g ai/ha A-1 12.5, B-5 1066, C-11 400, height 25-30 cm",0%
same,% Herbicidal activity,"ZEAMX; Example 6, 28 DAT, g ai/ha A-1 12.5, B-5 1066, C-11 400, height 50-60 cm",0%
same,% Herbicidal activity,"ZEAMX; Example 8, 28 DAT, g ai/ha A-1 12.5, B-5 1066, C-12 252, height 50-60 cm",0%
same,% Herbicidal activity,"SETVE; Example 4, 21 DAT, g ai/ha A-1 12.5, B-5 1066, height 8-16 cm",25%
same,% Herbicidal activity,"SETVE; Example 6, 7 DAT, g ai/ha A-1 12.5, B-5 1066, C-11 400, height 10-15 cm",15%
same,% Herbicidal activity,"SETVE; Example 6, 21 DAT, g ai/ha A-1 12.5, B-5 1066, C-11 400, height 10-15 cm",0%
same,% Herbicidal activity,"HORVW; Example 4, 21 DAT, g ai/ha A-1 12.5, B-5 1066",0%
same,% Herbicidal activity,"HORVW; Example 6, 28 DAT, g ai/ha A-1 12.5, B-5 1066, C-11 400",0%
same,% Herbicidal activity,"HORVW; Example 8, 21 DAT, g ai/ha A-1 12.5, B-5 1066, C-12 252",0%
same,% Herbicidal activity,"HORVW; Example 10, 21 DAT, g ai/ha A-1 12.5, B-5 1066, C-4 12.5",0%
